In patent US20220152051A1, “APPLICATION OF GLYCOCHOLIC ACID IN PREPARATION OF ANTITUMOR DRUGS” (DALIAN UNIVERSITY, priority 2019, published 2022):

Tests used:
[1] = system: 4T1 (mouse breast cancer cells); assay: In-vitro anti-tumor experiment (CCK-8), 4T1 cells; type: cell-based; conditions: for concentration at the highest point of the inhibition rate: 4T1 cells, highest inhibition rate at 12 h
Method: 3.1 Cells at a logarithmic growth phase are collected, the concentration of the cells is respectively regulated into 5×10^4 cells/ml by the 1640 culture medium and the DMEM culture medium, and 100 μl of cell suspension is added into a 96-well plate. 3.2 After culture is carried out for 24 h at the temperature of 37° C. at 5% CO2, the concentration gradient of glycocholic acid respectively of 0.1 nmol/L, 0.2 nmol/L, 0.4 nmol/L, 0.8 nmol/L, 1.6 nmol/L, 3.2 nmol/L and 6.4 nmol/L is added into 4T1 mouse breast cancer cells, the concentration gradient of glycocholic acid respectively of 0.02 μmol/L, 0.04 μmol/L, 0.08 μmol/L, 0.16 μmol/L, 0.32 μmol/L, 0.64 μmol/L and 1.28 μmol/L is added into MCF-7 cells, the concentration gradient of glycocholic acid respectively of 0.02 μmol/L, 0.04 μmol/L, 0.08 μmol/L, 0.16 μmol/L, 0.33 μmol/L, 0.66 μmol/L and 1.32 μmol/L is added into MDA-MB-468 cells, the concentration gradient of glycocholic acid respectively of 0.02 μmol/L, 0.04 μmol/L, 0.08 μmol/L, 0.16 μmol/L, 0.32 μmol/L, 0.64 μmol/L and 1.28 μmol/L is added into NIH:OVCAR-3 cells, the concentration gradient of glycocholic acid respectively of 0.02 μmol/L, 0.04 μmol/L, 0.08 μmol/L, 0.16 μmol/L, 0.32 μmol/L, 0.64 μmol/L and 1.28 μmol/L is added into RL-95-2 cells, set up five duplicated wells and meanwhile, set up a blank group and a control group. 3.3 Add CCK-8 reagent after 12 h, 24 h, 36 h, 48 h and 60 h, and incubate for 3 h, and after incubation is completed, the absorption value of each well is measured at OD450 nm of the microplate reader. 3.4 An inhibition rate of each concentration of glycocholic acid for tumor cells is obtained by utilizing a formula of 3.1 Cells at a logarithmic growth phase are collected, the concentration of the cells is regulated into 5×10^4 cells/ml by the 1640 culture medium, and 100 μl of cell suspension is added into a 96-well plate. […] 3.3 Add CCK-8 reagent after 12 h, 24 h, 36 h, 48 h and 60 h, incubate for 3 h, and after incubation is completed, the absorption value of each well is measured at OD450 nm of the microplate reader. […]

[2] = system: MCF-7 (human breast cancer cells); assay: In-vitro anti-tumor experiment (CCK-8), MCF-7 cells; type: cell-based
Method: (§1) 3.1 Cells at a logarithmic growth phase are collected, the concentration of the cells is respectively regulated into 5×10^4 cells/ml by the 1640 culture medium and the DMEM culture medium, and 100 μl of cell suspension is added into a 96-well plate. […] 3.3 Add CCK-8 reagent after 12 h, 24 h, 36 h, 48 h and 60 h, and incubate for 3 h, and after incubation is completed, the absorption value of each well is measured at OD450 nm of the microplate reader. […]

[3] = system: FXR gene expression; assay: Real-time PCR of specific target RNA expression in 4T1 cells; type: cell-based, mouse; conditions: 0.8 nmol/L, 12 h, vs negative control
Method: 2. Method: RNA of the 4T1 cells intervened by glycocholic acid is extracted, and after reverse transcription, the Real-time RCP is carried out to measure the changes in the RNA expression of the specific target of glycocholic acid.

[4] = system: 4T1 mouse breast cancer cells; assay: Tumor inhibition rate by animal model (4T1 tumor-bearing BABL/c mice); type: in vivo; conditions: 15 mg/kg intragastric twice/day for two weeks, 4T1 tumor in BABL/c mice
Method: 1. Materials: 30 female 10-week-old BABL/c mice purchased from the SPF Experimental Animal Center of the Dalian Medical University; and 4T1 tumor cells purchased from the Shanghai Cell Bank of the Chinese Academy of Sciences. 2.1 Modeling: 4T1 mouse breast cancer cells at a logarithmic growth phase are collected, and the concentration of the cells is adjusted to 2×10^6 cells/ml with PBS; and 0.1 ml of cell suspension is injected under the right armpits of the mice by a sterile syringe. 2.2 Administration: intragastric administration of 15 mg/kg of glycocholic acid is started on the second day after modeling (twice/day), 0.2 mL each time, the equal volume of distilled water is administrated to the control group, and administration is continuously carried out for two weeks. The mice are fasted on the night of the last administration, the mice are sacrificed on the fifteenth day by a cervical dislocation method, tumor tissues under the armpits of the mice are aseptically stripped and weighed, and the tumor inhibition rate is calculated according to a formula of […]

[5] = system: NIH:OVCAR-3 (human ovarian cancer cells); assay: In-vitro anti-tumor experiment (CCK-8), NIH:OVCAR-3 cells; type: cell-based
Method: as §1

[6] = system: MDA-MB-468 (human breast cancer cells); assay: In-vitro anti-tumor experiment (CCK-8), MDA-MB-468 cells; type: cell-based
Method: as §1

[7] = system: RL95-2 (human endometrial cancer cells); assay: In-vitro anti-tumor experiment (CCK-8), RL95-2 cells; type: cell-based
Method: as §1

[8] = system: FXR protein expression; assay: Western blot of specific target protein expression in 4T1 cells; type: cell-based, mouse; conditions: 0.8 nmol/L, 12 h
Method: 2. After proteins of 4T1 cells intervened by glycocholic acid are extracted, by degeneration treatment, changes in the expression of the related proteins are measured according to the Western blot flow.

[9] = highest inhibition rate at 36 h

| IC50 ([2]; Homo sapiens, MCF7, CCK-8, 36 h) [nM] | IC50 ([1]; 4T1 mouse breast cancer cells, CCK-8, 12 h) [nM] | IC50 ([5]; Homo sapiens, CCK-8, 48 h) [nM] | IC50 ([6]; Homo sapiens, CCK-8, 36 h) [nM] | IC50 ([7]; Homo sapiens, CCK-8, 36 h) [nM] | Compound | concentration at the highest point of the inhibition rate [1] [nmol/L] | concentration at the highest point of the inhibition rate [2, 9] [µmol/L] | expression of related RNA (FXR gene) after intervention [3] [times] | average mouse tumor mass ([4]; day 15) [g] | tumor inhibition rate ([4]; vs control group) [%] | concentration at the highest point of the inhibition rate ([5]; highest inhibition rate at 48 h) [µmol/L] | concentration at the highest point of the inhibition rate [6, 9] [µmol/L] | concentration at the highest point of the inhibition rate [7, 9] [µmol/L] | expression of the specific target protein (FXR) in tumor cells [8] |
| --- | --- | --- | --- | --- | --- | --- | --- | --- | --- | --- | --- | --- | --- | --- |
| – | – | – | – | – | C[C@H](CCC(=O)NCC(=O)[O-])[C@H]1CC[C@H]2[C@@H]3[C@H](O)C[C@@H]4C[C@H](O)CC[C@]4(C)[C@H]3C[C@H](O)[C@]12C.[Na+] [sodium glycocholate] | 0.7 | – | – | – | – | – | – | – | – |
| 640 to 1000 | 0.01 to 0.1 | 160 to 320 | 330 to 660 | 320 to 640 | C[C@H](CCC(=O)NCC(=O)O)[C@H]1CC[C@H]2[C@@H]3[C@H](O)C[C@@H]4C[C@H](O)CC[C@]4(C)[C@H]3C[C@H](O)[C@]12C [glycocholic acid] | 0.8 | 1.28 | 1.5 | 0.247 ± 0.08 | 42.83 | 1.28 | 1.32 | 1.28 | increased |
